From patent US11306092B2, “Amino indole compounds useful as TLR inhibitors” (BRISTOL-MYERS SQUIBB COMPANY, priority 2017, dated 2022)

Experiments:
Format in all cases: cell-based
human TLR8 = target: T1, human TLR8 (Homo sapiens, UniProt Q9NR97); test: TLR8 inhibition reporter assay (HEK-Blue SEAP reporter); settings: HEK-Blue cells overexpressing human TLR8; R848 15.9 μM; 22 hour incubation
T1 construct: host or cells: HEK-Blue cells
T1 sequence (Q9NR97 27-1041): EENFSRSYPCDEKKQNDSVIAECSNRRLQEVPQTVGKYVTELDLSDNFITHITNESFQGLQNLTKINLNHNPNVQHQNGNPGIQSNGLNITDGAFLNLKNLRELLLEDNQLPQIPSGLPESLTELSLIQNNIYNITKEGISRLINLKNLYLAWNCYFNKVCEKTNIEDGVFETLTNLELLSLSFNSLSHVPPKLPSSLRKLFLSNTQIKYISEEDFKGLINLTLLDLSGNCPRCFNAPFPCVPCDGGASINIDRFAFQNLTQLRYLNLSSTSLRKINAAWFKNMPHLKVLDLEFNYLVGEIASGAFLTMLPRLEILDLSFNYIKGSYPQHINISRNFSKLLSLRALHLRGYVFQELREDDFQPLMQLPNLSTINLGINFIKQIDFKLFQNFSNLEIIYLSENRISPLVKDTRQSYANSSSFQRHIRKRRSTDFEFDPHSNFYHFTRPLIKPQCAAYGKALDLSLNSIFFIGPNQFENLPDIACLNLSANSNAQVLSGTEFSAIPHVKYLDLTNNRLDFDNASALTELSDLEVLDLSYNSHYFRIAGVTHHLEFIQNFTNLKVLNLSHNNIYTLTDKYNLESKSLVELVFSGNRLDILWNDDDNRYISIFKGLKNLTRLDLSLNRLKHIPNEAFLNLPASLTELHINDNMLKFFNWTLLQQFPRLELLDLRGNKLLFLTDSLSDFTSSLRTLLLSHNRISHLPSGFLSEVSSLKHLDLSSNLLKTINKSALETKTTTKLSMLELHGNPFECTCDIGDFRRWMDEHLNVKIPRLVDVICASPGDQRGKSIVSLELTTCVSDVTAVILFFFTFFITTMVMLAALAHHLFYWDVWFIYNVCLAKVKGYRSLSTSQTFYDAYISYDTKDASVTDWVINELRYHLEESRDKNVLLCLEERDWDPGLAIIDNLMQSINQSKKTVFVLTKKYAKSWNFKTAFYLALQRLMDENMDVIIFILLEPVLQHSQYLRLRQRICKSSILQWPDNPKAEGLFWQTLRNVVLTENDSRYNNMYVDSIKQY
Summary of the method: (§1)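 HEK-Blue cells overexpressing human TLR7, TLR8 or TLR9 carry a SEAP reporter driven by NF-κB/AP-1 sites. Compounds (0.05 nM–50 μM) were preincubated 30 min at room temperature, then cells were stimulated with gardiquimod 7.5 μM (TLR7), R848 15.9 μM (TLR8) or ODN2006 5 nM (TLR9) for 22 h at 37 °C.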

human TLR9 = target: T2, human TLR9 (Homo sapiens, UniProt Q9NR96); test: TLR9 inhibition reporter assay (HEK-Blue SEAP reporter); settings: HEK-Blue cells overexpressing human TLR9; ODN2006 5 nM; 22 hour incubation
T2 construct: host or cells: HEK-Blue cells
T2 sequence (Q9NR96 26-1032): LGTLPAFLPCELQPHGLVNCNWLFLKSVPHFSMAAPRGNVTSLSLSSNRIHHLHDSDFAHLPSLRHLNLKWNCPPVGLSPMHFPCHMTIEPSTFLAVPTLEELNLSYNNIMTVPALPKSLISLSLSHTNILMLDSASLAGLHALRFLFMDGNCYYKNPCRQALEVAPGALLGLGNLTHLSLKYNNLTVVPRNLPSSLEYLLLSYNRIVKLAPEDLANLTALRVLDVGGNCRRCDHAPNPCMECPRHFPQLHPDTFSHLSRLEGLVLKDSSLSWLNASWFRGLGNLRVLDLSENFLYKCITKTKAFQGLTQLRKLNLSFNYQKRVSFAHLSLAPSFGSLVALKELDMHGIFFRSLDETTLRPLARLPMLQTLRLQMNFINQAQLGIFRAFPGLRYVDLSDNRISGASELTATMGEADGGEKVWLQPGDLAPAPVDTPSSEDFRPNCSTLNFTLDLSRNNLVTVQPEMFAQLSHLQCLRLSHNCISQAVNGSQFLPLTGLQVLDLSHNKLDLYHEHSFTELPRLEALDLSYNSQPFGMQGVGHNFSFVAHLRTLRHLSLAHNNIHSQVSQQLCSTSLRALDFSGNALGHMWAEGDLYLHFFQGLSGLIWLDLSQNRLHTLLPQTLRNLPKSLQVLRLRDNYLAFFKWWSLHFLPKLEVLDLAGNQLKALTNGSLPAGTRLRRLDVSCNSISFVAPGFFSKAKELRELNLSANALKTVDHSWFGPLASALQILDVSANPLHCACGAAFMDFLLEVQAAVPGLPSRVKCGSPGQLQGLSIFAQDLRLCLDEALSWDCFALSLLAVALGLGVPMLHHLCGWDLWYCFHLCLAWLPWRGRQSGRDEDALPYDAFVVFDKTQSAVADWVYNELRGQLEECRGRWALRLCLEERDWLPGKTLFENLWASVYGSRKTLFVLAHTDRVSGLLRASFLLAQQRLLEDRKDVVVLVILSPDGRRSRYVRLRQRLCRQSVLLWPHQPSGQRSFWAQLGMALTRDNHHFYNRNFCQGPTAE
Summary of the method: as §1

human TLR7 = target: T3, human TLR7 (Homo sapiens, UniProt Q9NYK1); test: TLR7 inhibition reporter assay (HEK-Blue SEAP reporter); settings: HEK-Blue cells overexpressing human TLR7; gardiquimod 7.5 μM; 22 hour incubation
T3 construct: host or cells: HEK-Blue cells
T3 sequence (Q9NYK1 27-1049): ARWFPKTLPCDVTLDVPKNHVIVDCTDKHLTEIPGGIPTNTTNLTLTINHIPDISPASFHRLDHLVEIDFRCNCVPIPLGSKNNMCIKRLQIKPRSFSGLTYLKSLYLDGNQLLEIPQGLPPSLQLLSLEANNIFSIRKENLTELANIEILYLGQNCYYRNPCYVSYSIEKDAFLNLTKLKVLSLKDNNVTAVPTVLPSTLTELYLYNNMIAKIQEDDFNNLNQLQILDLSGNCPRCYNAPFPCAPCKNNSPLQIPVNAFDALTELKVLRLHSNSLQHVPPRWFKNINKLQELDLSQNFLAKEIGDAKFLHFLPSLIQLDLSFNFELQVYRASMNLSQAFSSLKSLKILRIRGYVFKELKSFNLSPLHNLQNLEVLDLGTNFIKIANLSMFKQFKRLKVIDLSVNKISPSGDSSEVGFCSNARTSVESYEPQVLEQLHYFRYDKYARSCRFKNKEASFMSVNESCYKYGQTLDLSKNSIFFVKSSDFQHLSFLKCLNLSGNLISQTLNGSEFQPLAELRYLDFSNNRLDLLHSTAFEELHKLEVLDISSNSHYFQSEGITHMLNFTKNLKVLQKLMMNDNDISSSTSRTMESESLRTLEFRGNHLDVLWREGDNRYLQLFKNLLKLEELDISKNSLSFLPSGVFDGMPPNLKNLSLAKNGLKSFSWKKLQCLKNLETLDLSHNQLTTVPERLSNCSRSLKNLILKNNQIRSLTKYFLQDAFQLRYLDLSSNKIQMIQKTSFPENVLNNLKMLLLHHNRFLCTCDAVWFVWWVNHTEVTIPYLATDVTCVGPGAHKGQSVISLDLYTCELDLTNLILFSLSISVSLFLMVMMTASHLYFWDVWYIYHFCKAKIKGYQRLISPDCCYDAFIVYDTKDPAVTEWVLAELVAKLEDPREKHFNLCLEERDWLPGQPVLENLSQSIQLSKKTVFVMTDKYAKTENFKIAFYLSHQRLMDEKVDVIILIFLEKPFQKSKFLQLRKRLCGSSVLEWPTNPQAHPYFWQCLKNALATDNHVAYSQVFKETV
Summary of the method: as §1

Structure (SMILES)	IC50 (human TLR8) [nM]	IC50 (human TLR9) [nM]	IC50 (human TLR7) [nM]
COc1ccc(-c2[nH]c3ccc(N4CCC(NC5CCN(C(C)=O)CC5)CC4)cc3c2C(C)C)cc1OC [Example 89, 1-(4-((1-(2-(3,4-dimethoxyphenyl)-3-isopropyl-1H-indol-5-yl)piperidin-4-yl)amino)piperidin-1-yl) ethan-1-one]	5	2000	31
COc1ccc(-c2[nH]c3ccc(N4CCC(C)(N5CCOCC5)CC4)cc3c2C(C)C)cc1OC [Example 117, 4-(1-(2-(3,4-dimethoxyphenyl)-3-isopropyl-H-indol-5-yl)-4-methylpiperidin-4-yl)morpholine]	5.3	5050	188
COc1ccc(-c2[nH]c3ccc(N4CCC(N5CCCNCC5)CC4)cc3c2C(C)C)cc1OC [Example 121, 5-(4-(1,4-diazepan-1-yl)piperidin-1-yl)-2-(3,4-dimethoxyphenyl)-3-isopropyl-1H-indole]	5.2	993	15
CNCCN1CCN(c2ccc3[nH]c(-c4ccc(OC)c(OC)c4)c(C(C)C)c3c2)CC1 [Example 127, 2-(4-(2-(3,4-dimethoxyphenyl)-3-isopropyl-1H-indol-5-yl)piperazin-1-yl)-N-methylethanamine]	15	6320	45
CCc1c(-c2ccc(OC)c(OC)c2)[nH]c2ccc(N3CCC4(CC3)CCN(C(C)C)CC4)cc12 [Example 183, 3-(2-(3,4-dimethoxyphenyl)-3-ethyl-1H-indol-5-yl)-9-isopropyl-3,9-diazaspiro[5.5]undecane]	59	672	95
CNC1(CC#N)CCN(c2ccc3[nH]c(-c4ccc(OC)c(OC)c4)c(C(C)C)c3c2)CC1 [Example 112, 2-(1-(2-(3,4-dimethoxyphenyl)-3-isopropyl-1H-indol-5-yl)-4-(methylamino)piperidin-4-yl)acetonitrile]	9.4	6180	62
COc1ccc(-c2[nH]c3ccc(N(C)CC4CCCN4C)cc3c2C(C)C)cc1OC (stereo not drawn) [Example 104, 2-(3,4-dimethoxyphenyl)-3-isopropyl-N-methyl-N-((1-methylpyrrolidin-2-yl)methyl)-1H-indol-5-amine]	9.7	6820	1310
COc1ccc(-c2[nH]c3ccc(NC(=O)[C@@H]4CCCC[C@@H]4N)cc3c2C(C)C)cc1OC [Example 21, (1R,2S)-2-amino-N-(2-(3,4-dimethoxyphenyl)-3-isopropyl-1H-indol-5-yl)cyclohexane-1-carboxamide]	75	1390	128

Further compounds by falling IC50 (human TLR8), results first:

IC50 (human TLR8) [nM]	IC50 (human TLR9) [nM]	IC50 (human TLR7) [nM]	Structure (SMILES)
261	608	129	COc1ccc(-c2[nH]c3ccc(NC4CCC(N(C)CCN(C)C)CC4)cc3c2C(C)C)cc1OC (stereo not drawn) [Example 35, N1-(2-(3,4-dimethoxyphenyl)-3-isopropyl-1H-indol-5-yl)-N4-(2-(dimethylamino)ethyl)-N4-methylcyclohexane-1,4-diamine]
213	19300	670	COc1ccc(-c2[nH]c3ccc(NC(=O)[C@H](N)CCC(N)=O)cc3c2C(C)C)cc1OC [Example 22, (R)-2-amino-N1-(2-(3,4-dimethoxyphenyl)-3-isopropyl-1H-indol-5-yl)pentanediamide]
131	478	96	CCc1c(-c2ccc(OC)c(OC)c2)[nH]c2ccc(N3CCN(C4CCN(C)CC4)CC3(C)C)cc12 [Example 172, 2-(3,4-dimethoxyphenyl)-5-(2,2-dimethyl-4-(1-methylpiperidin-4-yl)piperazin-1-yl)-3-ethyl-1H-indole]
94	18800	936	COc1ccc(-c2[nH]c3ccc(N4CCC(N5CC(O)CC5=O)CC4)cc3c2C(C)C)cc1OC (stereo not drawn) [Example 116, 1-(1-(2-(3,4-dimethoxyphenyl)-3-isopropyl-1H-indol-5-yl)piperidin-4-yl)-4-hydroxypyrrolidin-2-one]
32	446	96	CCc1c(-c2ccnc(OC)c2)[nH]c2ccc(N3CCN(C4CCN(CC)CC4)CC3)cc12 [Example 148, 3-ethyl-5-(4-(1-ethylpiperidin-4-yl)piperazin-1-yl)-2-(2-methoxypyridin-4-yl)-1H-indole]
8.4	550	51	COc1ccc(-c2[nH]c3ccc(NC(=O)C4CCNC4)cc3c2C(C)C)cc1OC (stereo not drawn) [Example 13, N-(2-(3,4-dimethoxyphenyl)-3-isopropyl-1H-indol-5-yl) pyrrolidine-3-carboxamide]
0.05	318	6.2	CC(C)c1c(-c2ccnc3[nH]ccc23)[nH]c2ccc(N3CCN(C4CCN(C(C)C)CC4)CC3)cc12 [Example 166, 4-(3-isopropyl-5-(4-(1-isopropylpiperidin-4-yl)piperazin-1-yl)-1H-indol-2-yl)-1H-pyrrolo[2,3-b]pyridine]
